Consider 39 compounds from PubChem BioAssay (NCI).

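Step 1: Grow cells in 96-well plates. Step 2: Expose to compound for 48 hours at 5 concentrations. Step 3: Interpolate endpoints linearly; if unreached, use highest concentration. GI50 marks 50% less growth. TGI is the concentration that stops growth completely.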

What all share (test): inhibition of tumour cell growth, NCI panel, 48 h
Test [1] concerns DMS 273 small cell lung.
For test [2], the system named is DLD-1 colon.
Test [3] relates to HOP-18 NSCLC.
For test [4], the system named is XF 498 CNS.
For test [5], the system named is DMS 114 small cell lung.
The test system of test [6] is LXFL 529 NSCLC.
Test [7] relates to M19-MEL melanoma.
The test system of test [8] is MDA-N.
The test system of test [9] is RXF-631 renal.

Regarding `O=c1nc(NC(c2ccccc2)(c2ccccc2)c2ccccc2)ccn1CCNCCn1ccc(NC(c2ccccc2)(c2ccccc2)c2ccccc2)nc1=O`, the TGI is 21.6 µM in test [1]; over 100 µM in test [2]; 43.8 µM in test [3]; 31.9 µM in test [4]; 13.5 µM in test [5]; 26.2 µM in test [6]. In test [7], this compound returned a TGI of 21 µM.

On to `CN1C(=O)C(CC(=O)O)NC1=S` (configuration not stated), for which the TGI in [8] is over 100 µM.

As for `CN(C)CCNC(=O)c1cccc2[nH]c(-c3cccnc3)nc12`, the TGI in [1] worked out at 74.4 µM; in test [2] it was 73.1 µM; in test [3] it was 84 µM; in [7], 39.8 µM.

In the case of `COc1ccc(CC(=O)NCCc2ccc(OC)c(OC)c2)cc1Br`, the TGI in test [1], in test [2], in test [4], in [5] and in test [6] was over 100 µM in each case.

As to `O=C(O)C1C(C(=O)O)C23CC2(C(=O)O)C2(C(=O)O)CCC3=C3CCCC312` (configuration not stated), the TGI in [8] was found to be 89.2 µM.

Consider `CN(C)CCCN1c2ccccc2C(C)(C)c2ccccc21`, for which the TGI in test [8] stood at 27.6 µM.

For `Cc1c(C(=O)CC(=O)C(=O)Nc2ccc(Cl)cc2)[n+](=O)c2ccccc2n1[O-]`, the TGI in [1], in [2], in [3], in test [4], in test [5] and in [6] was over 100 µM throughout. Moreover, the TGI in test [7] is over 100 µM.

Consider `CCN(CC)CCn1c2ccccc2c(=O)c2c(O)ccc(O)c21`, for which the TGI in test [1] was over 100 µM; in [4] it was 44.2 µM; in test [5] it was 41 µM; in [8], 34.4 µM; in test [6], 41.7 µM; in [9], over 66.8 µM.

As to `CCCC/C=C1\CCC(C)(CN(C)C)C1=O` (configuration not stated), the TGI in test [3] is over 100 µM; in [5] it was over 100 µM; in test [6], over 100 µM; in [7], 29 µM.

Turning to `Cc1ccc(NC(=O)C(=O)CC(=O)c2c(C)n([O-])c3ccccc3[n+]2=O)cc1`, the TGI in [1] is 59.6 µM; in test [3] it was over 100 µM; in test [5] it was 38.5 µM; in [6] it was over 100 µM; in test [9] it was over 100 µM; in [7] it was 36.1 µM.

With `O=C1CCCC(=O)N1CCc1c[nH]c2ccccc12`, the TGI in test [1], in test [2], in [4], in test [5], in test [6] and in [9] was over 100 µM in each case. In addition, the TGI in [7] was over 100 µM.

Regarding `COC(=O)[C@]12CC=C3O[C@@H]4OC5(CCCCC5)O[C@@H]4C3[C@@H]1C(=O)CCC2=O` (some centres not stated), the TGI in test [1], in test [2], in test [3], in test [4], in test [5] and in test [6] was over 100 µM in each case. In test [9], this compound gave a TGI of over 100 µM.

In test [8], `O=c1oc2cc(N=Cc3ccc4c(c3)OCO4)ccc2c2ccccc12` had a TGI of over 100 µM.

Regarding `Fc1ccccc1C1SCc2nc3ccccc3n21` (configuration not stated), the TGI in test [1], in test [2], in test [5], in test [6], in [9] and in test [7] was over 100 µM in each case.

For `Cc1cc(NS(=O)(=O)c2ccc(NC(=O)c3ccc(Cl)c4c(Nc5ccc(S(=O)(=O)N=C(N)N)cc5)c5ccccc5nc34)cc2)no1`, the TGI in [2] is over 100 µM; in test [4], 98.8 µM; in [5] it was over 100 µM; in test [6] it was over 100 µM; in test [7], over 100 µM.

Regarding `O=C(O)CCSC(=O)Nc1ccccc1F`, the TGI in [1], in [5] and in test [6] was over 100 µM in each case.

Turning to `CN1CC[C@]2(C)c3cc(O)ccc3CC3CCCC1C32C` (some centres not stated), the TGI in test [2], in [3], in test [4], in [5], in [6] and in test [9] was over 100 µM in each case. In addition, the TGI in test [7] is over 100 µM.

Take `COc1ccc(S(=O)(=O)N/N=C/c2cc(I)cc([N+](=O)[O-])c2O)cc1OC`: the TGI was over 100 µM in test [1]; over 100 µM in [2]; 68.5 µM in [3]; 51.1 µM in [4]; 70.3 µM in [6]; over 100 µM in [9]. Further, the TGI in [7] is 99.2 µM.

On to `CCOC(=O)/C(=C\c1ccc(C#N)cc1)C(C)=O`, for which the TGI in [8] was over 100 µM.

For the compound `CC(=O)OCC(=O)[C@@]12OC(C)(C)O[C@@H]1C[C@H]1[C@@H]3CC=C4C[C@@H](O)CC[C@]4(C)[C@H]3CC[C@@]12C`, the TGI in test [8] is over 100 µM.

With `CN(C)C=[N+]=[N-]`, the TGI in [1], in [2], in test [3], in test [4], in test [5] and in [6] was over 100 µM each time. Besides, in [7], the TGI was over 100 µM.

With `c1ccc2cc3[s+]snc3cc2c1`, the TGI in [1], in test [2], in test [3], in test [4], in test [6] and in test [9] was over 100 µM throughout. This compound gave a TGI in [7] of over 100 µM.

For the compound `O=C(NCCCCCCNC(=O)OCCSCCn1cc(C(=O)NC(=O)OCc2ccccc2)c(=O)[nH]c1=O)OCCSCCn1cc(C(=O)NC(=O)OCc2ccccc2)c(=O)[nH]c1=O`, the TGI in [1], in test [2], in test [4], in [5], in [6] and in test [9] was over 100 µM in each case. This compound also returned a TGI in test [7] of over 100 µM.

On to `Cc1[nH]c(=O)n2c(C)nnc2c1C(=O)Nc1cc(Cl)cc(Cl)c1`, for which the TGI was over 100 µM in test [2], over 100 µM in [6] and 91.9 µM in [7].

As for `O=C(O)CNS(=O)(=O)c1ccc(NC(=O)CI)cc1`, the TGI in test [1] is 38.8 µM; in [2], 60.7 µM; in test [3], over 100 µM; in test [4] it was 29.5 µM; in [6], 20.2 µM; in [9], 32.5 µM. For the same compound, in test [7], the TGI was over 100 µM.

Turning to `C[C@]12CCC(=O)C(O)=C1CC[C@@H]1C2CC[C@]2(C)Nc3c(cnn3-c3ccccc3)CC12` (some centres not stated), the TGI in test [1], in test [2], in [4], in test [6], in test [9] and in [7] was over 100 µM in each case.

As for `C/C=C1/CCC2c3[nH]c4ccccc4c3CCN2C1` (configuration not stated), the TGI in [1], in test [2], in test [4], in [5], in test [6] and in [7] was over 100 µM throughout.

Take `COc1ccccc1C1c2cc3c(cc2OC(O)(CO)C1C(=O)O)OCO3` (configuration not stated) (tested in a mixture with another compound): the TGI in [1], in test [2], in [3], in test [5], in test [6] and in test [7] was over 100 µM throughout.

On to `CC(C)c1c(O)ccc2c1CCC1C(C)(C)CCCC21C` (configuration not stated), for which the TGI in test [8] was found to be 32.3 µM.

Turning to `C=C1C(=O)OC2C=C(CCC(C)=O)C(C)C(OC(C)=O)CC12` (configuration not stated), the TGI in test [3] was 24.1 µM; in test [4] it was 26.1 µM; in [6] it was 1.67 µM; in [7], 64.7 µM.

In test [8], `COc1ccc(C(=O)/C=C/c2ccc3c(c2)OCO3)c(OCc2ccccc2)c1` showed a TGI of over 100 µM.

Regarding `CNC(=O)CC1NC(=O)c2csc(n2)-c2ccc(-c3nc(C4=NC(C(=O)N5CCCC5C(N)=O)CO4)cs3)nc2-c2csc(n2)-c2csc(n2)C(C(C)C)NC(=O)CNC(=O)c2csc(n2)C(C(C)C)NC(=O)c2nc1sc2C` (configuration not stated), the GI50 in test [8] was under 0.001 µM.

As to `O=[N+]([O-])c1cc(C2SCc3nc4ccccc4n32)ccc1Cl` (configuration not stated), the TGI is 58 µM in [1]; over 100 µM in test [2]; over 100 µM in [3]; 54.3 µM in test [5]; 99.7 µM in [6]; 53.9 µM in test [7].

Regarding `NCCN.NCCN.O=C([O-])CCl.O=C([O-])CCl.[Co+3].[O-][Cl+3]([O-])([O-])[O-]`, in [2], the GI50 was over 100 µM and the TGI is over 100 µM. Moreover, in test [6], the GI50 is over 100 µM and the TGI was over 100 µM.

For the compound `O=C(O)CCC(NC(=O)c1ccccc1)C(=O)O` (configuration not stated), the TGI in test [1], in test [2], in [3], in test [4], in [5] and in test [6] was over 100 µM each time. Besides, the TGI in [9] is over 100 µM.

`Nc1c([N+](=O)[O-])cc2c3c(cccc13)CC2` gave a TGI in test [8] of over 100 µM.

`O=C1C2C=CC(C2)C(c2ccc(O)cc2)N1O` (configuration not stated): the TGI in [2], in test [4], in test [6] and in [7] was over 100 µM throughout.

In turn, `O=C1C2C(c3ccccc3)NC(c3ccccc3)C1C(c1ccccc1)NC2c1ccccc1` (configuration not stated) displayed a TGI in test [8] of over 100 µM.

For the compound `Cc1ccc([N+](=O)[O-])cc1NC(=O)c1cccc([N+](=O)[O-])c1O`, the TGI in test [1] was 76.4 µM; in [2] it was over 100 µM; in [4], 63.2 µM; in test [5], 43.2 µM; in [6] it was 78.1 µM; in [7] it was 56 µM.
